Like-named read-outs stand apart in the source and are kept apart here.
Legend:
FFA3/GPR41 [1] = target: T1, FFA3/GPR41 (Homo sapiens, UniProt O14843); set-up: method as in PMID 32141297; details: described in the literature; cited from earlier work
T1 construct: host or cells: Flp-In-293
T1 sequence (O14843 1-346): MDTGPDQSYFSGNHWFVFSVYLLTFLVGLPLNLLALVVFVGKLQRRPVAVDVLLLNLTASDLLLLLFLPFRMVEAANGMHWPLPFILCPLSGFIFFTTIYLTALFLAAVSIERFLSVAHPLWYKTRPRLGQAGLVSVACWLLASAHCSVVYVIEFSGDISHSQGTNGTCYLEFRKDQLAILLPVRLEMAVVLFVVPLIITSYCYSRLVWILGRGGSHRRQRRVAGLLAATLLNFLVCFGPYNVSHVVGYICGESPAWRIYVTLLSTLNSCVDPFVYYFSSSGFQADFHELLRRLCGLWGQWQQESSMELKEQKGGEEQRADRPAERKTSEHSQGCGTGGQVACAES

TNF-α mRNA = experiment: LPS-induced TNF-α gene expression in THP-1 macrophages (qRT-PCR); assay type: cell-based, human; details: compound 50 µg/mL; 4 h LPS; LPS-treated cells = 100%
Experimental: (§1) The human THP-1 monocyte cell line was obtained from ATCC (American Type Culture Collection). […] The THP-1 monocytes were stimulated to differentiate into macrophages with phorbol 12-myristate 13-acetate (PMA) (50 ng/mL) for 24 h. The medium was exchanged for PMA-free medium for 48 h before the cells were used for experiments.
(§2) The total RNA was isolated from THP-1 cells using TRIzol reagent, according to the manufacturer’s protocol. First-strand cDNA was synthesized from 2 µg of RNA using oligo(dT) primers with RevertAid H Minus kit (Thermo Fisher Scientific, USA). The qRT-PCR procedure was performed using ABsolute Blue QPCR SYBR Green Master Mix reagent (Thermo Fisher Scientific, USA) with a ViiA7 real-time PCR detection system (Applied Biosystems, USA). The primer pairs that were employed for HCA2/GPR109A were forward 5′-[…]-3′ and reverse 5′-[…]-3′; for FFA2/GPR43 were forward 5′-[…]-3′ and reverse 5′-[…]-3′; for FFA3/GPR41 were forward 5′-[…]-3′ and reverse 5′-[…]-3′; for IL-6 were forward 5′-[…]-3′ and reverse 5′-[…]-3′; for MCP-1 were forward 5′-[…]-3′ and reverse 5′-[…]-3′; for TNF-α were forward 5′-[…]-3′ and reverse 5′-[…]-3′; for RPS29 were forward 5′-[…]-3′ and reverse 5′- […]-3′. The mRNA levels were quantified and normalized to the levels of the reference gene RPS29 using the 2^−ΔΔCt method and presented as relative expression compared to the values for untreated cells.

MCP-1 mRNA = experiment: LPS-induced MCP-1 gene expression in THP-1 macrophages (qRT-PCR); assay type: cell-based, human; details: compound 50 µg/mL; 4 h LPS; LPS-treated cells = 100%
Experimental: as §1, §2

FFA3/GPR41 mRNA = experiment: FFA3/GPR41 gene expression in LPS-stimulated THP-1 macrophages (qRT-PCR); assay type: cell-based, human; details: compound 50 µM; 4 h LPS 1 µg/mL; p < 0.05
Experimental: as §1, §2

FFA2/GPR43 = target: T2, FFA2/GPR43 (Homo sapiens, UniProt O15552); experiment: forskolin-stimulated cAMP accumulation assay, Flp-In-293 cells stably expressing FFA2/GPR43; assay type: cell-based; details: cAMP assay
T2 construct: host or cells: Flp-In-293
T2 sequence (O15552 1-330): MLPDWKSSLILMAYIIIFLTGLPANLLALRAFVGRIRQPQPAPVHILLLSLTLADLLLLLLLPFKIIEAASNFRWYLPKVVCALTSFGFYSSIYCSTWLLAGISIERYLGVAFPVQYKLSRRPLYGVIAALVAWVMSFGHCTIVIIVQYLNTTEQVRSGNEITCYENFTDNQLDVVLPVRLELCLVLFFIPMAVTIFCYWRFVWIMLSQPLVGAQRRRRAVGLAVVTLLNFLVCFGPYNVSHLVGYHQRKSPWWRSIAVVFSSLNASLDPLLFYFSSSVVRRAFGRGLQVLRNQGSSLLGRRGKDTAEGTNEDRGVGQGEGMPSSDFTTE
Experimental: (§3) All of our synthesized compounds were evaluated in forskolin-stimulated cAMP accumulation assay using Flp-In-293 cells stably expressing human FFA2/GPR43, FFA3/GPR41 or HCA2/GPR109A receptors (Table 1, Table 2 and Table 3; Figure 2).
(§4) Flp-In-293 cells (Invitrogen) were used for the generation of stable FFA3/GPR41 and FFA2/GRP43 cell lines using Flp-In System (Invitrogen). Flp-In-293 cells were cultured in Dulbecco’s modified Eagle medium (DMEM) supplemented with 10% fetal bovine serum (FBS), penicillin (100 U/mL), streptomycin (100 µg/mL), and zeocin (100 µg/mL). The cells were co-transfected with pOG44 (Invitrogen) and pcDNA5/FRT-FFA3 or pcDNA5/FRT-FFA2 using TurboFect (Thermo Fisher Scientific), and stable cell lines were generated according to the manufacturer’s protocol (Invitrogen). After transfection, the cells were cultured under selection pressure due to the presence of hygromycin B (100 µg/mL) in DMEM supplemented with 10% FBS, penicillin, and streptomycin.
(§5) For cAMP assay, the cells were distributed into a 384-well white microplate at a density of 12,000 cells per well and stimulated with the indicated compounds in the presence of 3 μM forskolin for 30 min. […] The cells and the compounds were diluted in 1X phosphate-buffered saline (PBS) supplemented with 0.5 mM of 3-isobutyl-1-methylxanthine. The intracellular cAMP levels were measured using a Lance cAMP kit according to the manufacturer’s instructions. The plates were read on a PerkinElmer Victor 3V multilabel plate reader. The cAMP was quantitated in each sample by comparison to a calibration curve of known cAMP quantities provided in the kit.

IL-6 mRNA = experiment: LPS-induced IL-6 gene expression in THP-1 macrophages (qRT-PCR); assay type: cell-based, human; details: compound 50 µg/mL; 4 h LPS; LPS-treated cells = 100%
Experimental: as §1, §2

[2] = cyclic voltammetry, electrooxidation potential; assay type: physicochemical; details: vs. Ag/Ag+; acetonitrile, glassy carbon electrode
Experimental: Cyclic voltammetry experiments were carried out using a PARSTAT 2273 electrochemical system. A stationary glassy carbon disk electrode (d = 0.8 mm) served as the working electrode, while the counter electrode was a Pt wire. The oxidation potentials were measured relative to an Ag/Ag^+ reference electrode. Acetonitrile was dried over P2O5 and distilled; the distillate was stored over CaH2 and redistilled immediately prior to use. Recrystallized tetrabutylammonium tetrafluoroborate (TBATFB) was used as a supporting electrolyte at 0.1 M concentration.

[3] = set-up: method as in PMID 32141297; details: calculated with ChemDraw Professional Version 16; cited from earlier work
FFA3/GPR41 [4] = target: T1, FFA3/GPR41; experiment: forskolin-stimulated cAMP accumulation assay, Flp-In-293 cells stably expressing FFA3/GPR41; assay type: cell-based; details: for Emax: Flp-In-293, read-out: FFA3/GPR41 Emax, maximal inhibition of forskolin-stimulated cAMP (converted)
Experimental: as §3, §4, §5

[5] = inhibition of forskolin-stimulated cAMP, absence of propionate, mean ± SD, read-out: FFA3/GPR41 EC50
[6] = presence of 5 µM propionate, read-out: FFA3/GPR41 EC50 in the presence of propionate

| Compound | activity in the cAMP assay (in words) (FFA3/GPR41 [1]) | decrease in TNF-α mRNA (TNF-α mRNA) | decrease in MCP-1 mRNA (MCP-1 mRNA) | LPS-stimulated FFA3/GPR41 mRNA level (FFA3/GPR41 mRNA) | activity towards FFA2/GPR43 (in words) (FFA2/GPR43) | decrease in IL-6 mRNA (IL-6 mRNA) | El.ox. pot. (first, lower potential) [2] | El.ox. pot. (second, higher potential) [2] | logP [3] | Emax (FFA3/GPR41 [4]; mean ± SD) | EC50 (FFA3/GPR41 [4]; [5]) | EC50 (FFA3/GPR41 [4]; [6]) |
| --- | --- | --- | --- | --- | --- | --- | --- | --- | --- | --- | --- | --- |
| 4-i-butylhexahydroquinoline methyl ester [compound 28] | no activity | – | – | – | – | – | – | – | – | – | – | – |
| CC1=C(C(=O)Nc2ccccc2C)C(c2cccs2)C2=C(CCCC2=O)N1 (stereo not shown) [1-1] | – | 59 ± 10% | 53 ± 5% | significantly increased | lacked activity | 67 ± 1% | 1.19 V | 1.64 V | 2.65 | 96% | 1.79 ± 0.3 µM | 0.64 ± 0.2 µM |
| CC1=C(C(=O)Nc2ccccc2C)C(c2ccco2)C2=C(CCCC2=O)N1 (stereo not shown) [1-2] | – | 64 ± 13% | 67 ± 10% | significantly increased | – | 74 ± 1% | 1.19 V | 1.99 V | 2.18 | 93% | 0.61 ± 0.09 µM | 0.58 ± 0.03 µM |
| CC1=C(C(=O)Nc2cc(Cl)ccc2Cl)C(c2ccco2)C2=C(CCCC2=O)N1 (stereo not shown) [1-3] | – | – | – | – | – | – | – | – | 2.90 | 99% | 0.32 ± 0.05 µM | 0.1 ± 0.02 µM |
| CC1=C(C(=O)Nc2ccc(Cl)cc2Cl)C(c2ccco2)C2=C(CCCC2=O)N1 (stereo not shown) [1-4, N-(2,4-Dichlorophenyl)-4-(furan-2-yl)-2-methyl-5-oxo-1,4,5,6,7,8-hexahydroquinoline-3-carboxamide] | – | 50 ± 2% | 37 ± 6% | – | – | 64 ± 5% | 1.24 V | 1.67 V | – | 86% | 0.23 ± 0.07 µM | 0.081 ± 0.04 µM |

Reference: paper PMC8537386, “The Specificity and Broad Multitarget Properties of Ligands for the Free Fatty Acid Receptors FFA3/GPR41 and FFA2/GPR43 and the Related Hydroxycarboxylic Acid Receptor HCA2/GPR109A” (Pharmaceuticals, 2021)
